Reference: patent US11427848B2, “Methods for harvesting mammalian cell cultures” (Amgen Inc., priority 2014, dated 2022)

Tested on: CHO cell lines (Cell line A and Cell line B)
Type: cell-based, Chinese Hamster
Method: To test for the effect of toxicity of high polyoxypropylene-polyoxyethylene block copolymer (LUTROL® F68) concentration on cells, two CHO cell lines (Cell line A and Cell line B) expressing different monoclonal antibodies were carried over 10 passages (at 3 days/passage), at an initial seeding density of 8×10^5 cells/ml in 250 ml shake flasks with cell culture media containing 1, 2, 3, 4 or 5 g/L polyoxypropylene-polyoxyethylene block copolymer (LUTROL® F68).
An overall increase in cell density was observed (3.4-6.5×10^6 cells/ml) after 3 days. Viable cell density was normalized to the 1 g/L condition to enable comparison between the different polyoxypropylene-polyoxyethylene block copolymer (LUTROL® F68) concentrations.
The cells grown in media containing 3, 4 or 5 g/L polyoxypropylene-polyoxyethylene block copolymer (LUTROL® F68) were consistently higher over the passages, in which a 10% increase in cell density was measured compared to the 1 g/L condition (p<0.01) (FIG. 7A). The viability was also greater for the higher polyoxypropylene-polyoxyethylene block copolymer (LUTROL® F68) cultures (mean >95%) (FIG. 7B). […] The variation of viable cell density, % viability.

In the case of poloxamer 188 [LUTROL® F68], the “cell diameter compared to the 1 g/L condition” value is reported as “increased slightly”, the “increase in cell density compared to the 1 g/L condition” value is reported as 10% and the “viability (mean)” value is reported as greater than 95%.
